Structures are written as SMILES.

A short description of data set [1]: (§1) Effective dose determined in an animal model which lasted for more than 8 h. It counts as functional.
The nature of data set [2]: Percent oral bioavailability evaluated in dog. It counts as ADME, organism-based, Canis lupus familiaris. As to conditions: in vivo.
Data set [3] in a line: Percent oral bioavailability evaluated in monkey. The data set is classed as ADME, organism-based. As to conditions: cercopithecidae, in vivo.
The nature of data set [4]: Percent oral bioavailability evaluated in rat. As to conditions: in vivo. It counts as ADME, organism-based.
The nature of data set [5]: as §1. It counts as ADME.

Broadly, the ED50 is the midpoint of the dose-response relation. In general, bioavailability refers to dose-corrected exposure relative to a reference, in per cent. In data set [1], `CC(C)C(NC(=O)Cn1c(-c2ccccc2)ncc(N)c1=O)C(=O)c1nnc(C(C)(C)C)o1` (stereo not given) displayed an ED50 of 1.4 mg/kg. Also, the bioavailability in data set [2] stood at 31%; in data set [3], 18%; in data set [4] it was 51%.

`CC(C)C(NC(=O)Cn1c(-c2ccc(F)cc2)ncc(N)c1=O)C(=O)C(F)(F)F` (stereo not given) returned an ED50 in data set [5] of 7.5 mg/kg.
